Experiments:
[1] = Metabolic stability in mouse liver microsomes assessed as unbound intrinsic clearance; assay type: ADME, Microsome
NCI-H1703 [2] = experiment: Induction of ferroptosis in human NCI-H1703 cells assessed as cell viability incubated for 72 hrs in presence of ferrostatin-1 by CellTiter-Glo luminescent cell viability assay; assay type: functional, cell-based; settings: NCI-H1703, 72 h
NCI-H1703 [3] = experiment: Induction of ferroptosis in human NCI-H1703 cells assessed as cell viability incubated for 72 hrs by CellTiter-Glo luminescent cell viability assay; assay type: functional, cell-based; settings: NCI-H1703, 72 h
[4] = AUC in CB17 SCID-Beige mouse subcutaneously inoculated with WSUDLCL2 cells at 30 mg/kg, ip; assay type: ADME, organism-based; set-up: dose 30 mg/kg, route ip; settings: in vivo
[5] = Stability in mouse plasma assessed as half life; assay type: ADME, cell-free
[6] = Half life in CB17 SCID-Beige mouse subcutaneously inoculated with WSUDLCL2 cells at 30 mg/kg, ip; assay type: ADME, organism-based; settings: in vivo
[7] = Metabolic stability in human liver microsomes assessed as unbound intrinsic clearance; assay type: ADME, Microsome
[8] = Stability in human plasma assessed as half life; assay type: ADME, cell-free
[9] = Cmax in CB17 SCID-Beige mouse subcutaneously inoculated with WSUDLCL2 cells at 30 mg/kg, ip; assay type: ADME, organism-based; set-up: dose 30 mg/kg, route ip; settings: in vivo
[10] = Aqueous solubility of the compound at pH 7; assay type: physicochemical
[11] = Aqueous solubility of the compound at pH 1; assay type: physicochemical
[12] = Unbound fraction in human plasma; assay type: ADME, cell-free
[13] = Unbound fraction in mouse plasma; assay type: ADME, cell-free

SMILES	CL free [1] [L/h/kg]	EC50 (NCI-H1703 [2]) [µM]	EC50 (NCI-H1703 [3]) [nM]	AUC [4] [µg/h/mL]	half-life [5] [min]	half-life [6] [min]	CL free [7] [L/h/kg]	half-life [8] [min]	Cmax [9] [ng/mL]	solubility [10] [µM]	solubility [11] [µM]	fraction unbound [12]	fraction unbound [13]
COC(=O)[C@H]1Cc2c([nH]c3ccccc23)[C@H](c2ccc(C(F)(F)F)cc2)N1C(=O)CCl	177.7	3.25	37	1.53	263	84	85.1	> 960	410	< 0.8	< 0.8	–	–
COC(=O)[C@H]1Cc2c([nH]c3ccccc23)[C@H](c2ccc(OC(F)(F)F)cc2)N1C(=O)CCl	–	4.27	75	–	–	–	–	–	–	–	–	–	–
COC(=O)[C@H]1Cc2c([nH]c3ccccc23)[C@H](c2ccc(C(F)(F)F)nc2)N1C(=O)CCl	63.7	> 10	42	–	127	–	8.8	158	–	–	–	–	–
COC(=O)[C@H]1Cc2c([nH]c3ccccc23)[C@H](c2ccc(F)cc2Cl)N1C(=O)CCl	–	> 10	28	–	–	–	–	–	–	–	–	–	–
COC(=O)[C@H]1Cc2c([nH]c3ccccc23)[C@H](c2ccc(S(C)(=O)=O)nc2)N1C(=O)CCl	14.1	2.45	118	–	166	–	1.7	200	–	> 200	–	–	–
COC(=O)[C@H]1Cc2c([nH]c3ccccc23)[C@H](C2CCOCC2)N1C(=O)CCl	21.2	> 10	3130	–	–	–	2	–	–	–	–	0.31	0.24
Cc1noc([C@H]2Cc3c([nH]c4ccccc34)[C@H](c3ccc(S(C)(=O)=O)cc3)N2C(=O)CCl)n1	14.6	2.34	37	–	111	–	1.9	175	–	–	–	–	–

The remaining lines, values ahead:

CL free [1] [L/h/kg]	EC50 (NCI-H1703 [2]) [µM]	EC50 (NCI-H1703 [3]) [nM]	AUC [4] [µg/h/mL]	half-life [5] [min]	half-life [6] [min]	CL free [7] [L/h/kg]	half-life [8] [min]	Cmax [9] [ng/mL]	solubility [10] [µM]	solubility [11] [µM]	fraction unbound [12]	fraction unbound [13]	SMILES
123	> 10	127	–	241	–	22.5	782	–	–	–	0.068	–	COC(=O)[C@H]1Cc2c([nH]c3ccccc23)[C@H](c2ccc(OC)cc2)N1C(=O)CCl
–	3.74	737	–	–	–	–	–	–	–	–	–	–	CN(C)C(=O)[C@H]1Cc2c([nH]c3ccccc23)[C@H](c2ccccc2)N1C(=O)CCl
98.5	> 10	1760	–	216	–	17.5	446	–	–	–	0.061	–	O=C([C@H]1Cc2c([nH]c3ccccc23)[C@H](c2ccccc2)N1C(=O)CCl)N1CCCC1
348.6	> 10	265	–	166	–	30.3	371	–	–	–	0.011	–	CC(C)OC(=O)[C@H]1Cc2c([nH]c3ccccc23)[C@H](c2ccccc2)N1C(=O)CCl
54.3	–	> 10000	–	63	–	4.6	56	–	–	–	–	–	C=CC(=O)N1[C@@H](c2ccccc2)c2[nH]c3ccccc3c2C[C@@H]1C(=O)OC
54.6	> 10	44	–	161	–	7.1	404	–	–	–	0.013	–	Cc1noc([C@H]2Cc3c([nH]c4ccccc34)[C@H](c3ccccc3)N2C(=O)CCl)n1
